What was measured:
[1] = system: normal murine melanocytes treated with alpha melanocyte stimulating hormone (α-MSH); assay: Melanin content in melanocytes treated with α-MSH; assay type: cell-based; conditions: 48 hours, α-MSH 100 nM; PBPE 20 µM, tesmilifene 10 µM, umbelliprenin 40 µM (Figure 3)
Description: (§1) Normal murine melanocytes were seeded and treated for 48 hours with increasing doses of umbelliprenin, 100µM of kojic acid (KA) or carrier solvent (DMSO). […] The cell pellet was washed twice with phosphate buffer saline, transferred in an Eppendorf vial and centrifuged at 5000 g for 5 minutes at 4°C. The supernatant was discarded. 200 µL of water and 1 mL of EtOH/Ether (1/1) were added to precipitate melanin. The mixture was incubated for 15 minutes at room temperature, centrifuged at 5000 g for 5 minutes and the supernatant was discarded. The precipitate was solubilized by 300 µL of a mixture of aqueous sodium hydroxide (1 M)/DMSO 90/10 after heating at 80°C for 1 hour. The absorbance was measured at 405 nm. The melanin content was expressed as a percentage of control (=100%).

Tyrosinase = Tyrosinase activity in lysates of treated melanocytes (L-DOPA oxidation); assay type: cell-based, murine; conditions: 48 hours; PBPE 20 µM, tesmilifene 10 µM, umbelliprenin 40 µM; cell lysate, percentage of control (Figure 6)
Description: Tyrosinase activity was measured using a previously reported procedure (Ando H, J. Lipid Res., 1999, 40, p. 1312). […] The cell pellet was washed twice with phosphate buffer saline, transferred in an Eppendorf vial and centrifuged at 5000 g for 5 minutes at 4°C. The supernatant was discarded. Cell lysis was performed with an aqueous solution of sodium deoxycholate 0.5% (1 mL per cell pellet). The suspension was incubated at 0°C for 15 minutes and then 3 mL of a freshly prepared solution of L-DOPA (0.1% w/w) in phosphate buffer at 0.1 M (pH 6.8) was added to the cell lysate. The mixture was incubated at 37°C for 10 min. Tyrosinase activity was measured with a spectrophotometer to quantify the oxidation of L-DOPA to DOPAchrome. The absorbance was measured at 475 nm. The tyrosinase activity was expressed as a percentage of control (=100%). Control corresponds to the tyrosinase activity measured in the cell lysate from normal murine melanocytes treated with carrier solvent. Melanin content of treated murine melanocytes was also measured as described in example 4.

[2] = system: normal murine melanocytes; assay: Cytotoxicity, trypan blue cell viability; conditions: 24, 48 and 72 hours; PBPE 20 µM, tesmilifene 10 µM, umbelliprenin 40 µM (Figure 9)
Description: Normal murine melanocytes were seeded and treated for 24, 48 and 72 hours with PBPE (20 µM), tesmilifene (10 µM), umbelliprenin (40 µM) or carrier solvent (DMSO for umbelliprenin and ethanol for tesmilifene or PBPE). Cells were detached by trypsinization, collected in phosphate buffer saline and centrifuged at 1500 rpm for 5 minutes at 4°C. Cells pellets were resuspended in the trypan blue solution (0.25%, w/v in PBS) and counted in a Malassez cell under a light microscope. The percentage of cell viability was calculated using the following formula: % cell viability = [1-(blue cells/total cells)] x 100 [formula]

[3] = system: normal murine melanocytes exposed to ultraviolet (UV-B) irradiation; assay: Melanin content in melanocytes exposed to UV-B irradiation; assay type: cell-based; conditions: UV-B 20 mJ/cm^2; PBPE 20 µM, tesmilifene 10 µM, umbelliprenin 40 µM (Figure 4)
Description: as §1

[4] = system: normal murine melanocytes; assay: Melanin content in normal murine melanocytes (basal); assay type: cell-based; conditions: 48 hours; for melanin content: increasing doses, expressed as percentage of control (Figures 1, 2)
Description: as §1
Normal murine melanocytes were seeded and treated for 48 hours with increasing doses of PBPE, tesmilifene (Tes) or carrier solvent (ethanol).
Normal murine melanocytes were seeded and treated for 48 hours with fixed doses of PBPE, tesmilifene, umbelliprenin or a combination of those, or carrier solvent (DMSO for umbelliprenin, ethanol for tesmilifene or PBPE and EtOH/DMSO 1/1 for the combination).
The cell pellet was washed twice with phosphate buffer saline, transferred in an Eppendorf vial and centrifuged at 5000 g for 5 minutes at 4°C. The supernatant was discarded. Cell lysis was performed with an aqueous solution of sodium deoxycholate 0.5% (1 mL per cell pellet). The suspension was incubated at 0°C for 15 minutes and then 3 mL of a freshly prepared solution of L-DOPA (0.1% w/w) in phosphate buffer at 0.1 M (pH 6.8) was added to the cell lysate. The mixture was incubated at 37°C for 10 min. Tyrosinase activity was measured with a spectrophotometer to quantify the oxidation of L-DOPA to DOPAchrome. The absorbance was measured at 475 nm. The tyrosinase activity was expressed as a percentage of control (=100%). Control corresponds to the tyrosinase activity measured in the cell lysate from normal murine melanocytes treated with carrier solvent.

[5] = system: melanogenic genes (Tyrosinase, Mitf, TRP-1 and TRP-2); assay: Expression of genes encoding melanogenic proteins (RT-qPCR); assay type: cell-based, murine; conditions: 48 hours; PBPE 20 µM, tesmilifene 10 µM, umbelliprenin 40 µM (Figure 8)
Description: We then performed RNA extraction. We added Trizol® (1 ml) on treated cells. After incubation (5 minutes at room temperature), we transferred the cells suspension into Eppendorf vial. Chloroform (200 µl at 4°C) was added, the mixture was manually stirred for 15 seconds, incubated for 5 minutes at room temperature and then centrifuged at 16000 g for 10 minutes at 4°C. Aqueous colorless layer was collected and isopropanol (500 µL at -20°C) was added. The mixture was manually stirred for 15 seconds, incubated for 15 minutes at room temperature and the centrifuged at 16200 g for 10 minutes at 4°C. The supernatant was discarded and the precipitate was washed with 1 mL of EtOH/H2O (3/1) at -20°C. The mixture was centrifuged at 16000 g for 10 minutes at 4°C, the supernatant discarded and the pellet was allowed to dry for 10 minutes at room temperature. The pellet was dissolved in RNAse-free water (30 µL). The amount and purity of RNA was determined by measuring the absorbance at 230, 260 and 280 nm with a nanodrop ND-1000 spectrophotometer (Thermo Scientific) according to the manufacturer's instructions.
We then performed RT-qPCR experiment. We prepared a mixture containing RNA (1 µg), reverse transcriptase (1 µL), the reaction mixture « iScript®5x » (4 µL) and RNAse-free water (qsp 20 µl). The mixture was vortexed, centrifuged for few seconds and then introduced into a thermocycler. Reverse transcription was performed using the following program : 5 min at 25°C, 30 min at 42°C and then 5 min at 85°C. Eppendorf vial was maintained at 4°C until the beginning of the qPCR experiment. We then examined the expression of melanogenic genes (Tyrosinase, Mitf, TRP-1 and TRP-2) and housekeeping genes (glyceraldehyde 3-phosphate dehydrogenase and Cyclophiline A1) by qPCR. For this purpose, cDNA was diluted with RNAse-free water (180 µL) and then we prepared a mixture containing: primers, Syber Green® and RNAse-free water. We mixed in a 96-well plate cDNA (5 µL) and the mixture (20 µL). […]

[6] = system: normal murine melanocytes; assay: Whitening effect on melanocyte cell pellet (photograph); assay type: cell-based; conditions: umbelliprenin 40 µM, 48 hours (Figure 7)
Description: Normal murine melanocytes were seeded and treated for 48 hours with umbelliprenin (40 µM) or carrier solvent (DMSO). […] Cells pellet was washed with phosphate buffer saline, centrifuged and the supernatant was discarded. Cell pellets were then photographed.

[7] = PBPE 20 µM, tesmilifene 10 µM, umbelliprenin 40 µM vs kojic acid 100 µM (Figure 6)

| SMILES | melanin content in presence of α-MSH [1] | tyrosinase activity (Tyrosinase) | cell viability [2] | melanin content after UV-B irradiation [3] | melanin content [4] | diminution of melanin content compared with kojic acid [4, 7] | expression of melanogenic genes [5] | appearance of melanocytes (cell pellet) versus carrier solvent [6] | diminution of melanin content compared with kojic acid ([4]; increasing doses of umbelliprenin vs 100µM kojic acid (Figure 1)) |
| --- | --- | --- | --- | --- | --- | --- | --- | --- | --- |
| c1ccc(Cc2ccc(OCCN3CCCC3)cc2)cc1 [PBPE] | inhibits the melanogenic effect of α-MSH | decrease tyrosinase activity levels | no significant impact | inhibits the melanogenic effect of UV-B | significantly decrease melanin content in a dose dependent manner | higher | this effect was not observed |  |  |
| CCN(CC)CCOc1ccc(Cc2ccccc2)cc1 [tesmilifene] | inhibits the melanogenic effect of α-MSH | decrease tyrosinase activity levels |  | inhibits the melanogenic effect of UV-B | significantly decrease melanin content in a dose dependent manner | higher | this effect was not observed |  |  |
| CC(C)=CCC/C(C)=C/CC/C(C)=C/COc1ccc2ccc(=O)oc2c1 [umbelliprenin] | inhibits the melanogenic effect of α-MSH | decrease tyrosinase activity levels |  | inhibits the melanogenic effect of UV-B | significantly decreases melanin content in a dose dependent manner | higher | significantly repressed | much lighter | higher |

Source: patent EP3097904A1, “DEPIGMENTING AGENTS TO LIGHTEN THE SKIN” (priority 2015, dated 2016)
